Test results published in ChEMBL document CHEMBL3885861, “Open TG-GATES”.

Species: Rattus norvegicus
Assay: Open TG-GATES - Regimen: Single
Type: toxicity, organism-based, Sprague-Dawley
Design: regimen Single, gender Male, age 6 weeks
Conditions: in vivo, po, 0 mg/kg, route gavage, dose level Control; for Bas / Eos / Fbg / Hb / Ht / Lym / MCHC / MCV / Mono / PT / Plat / RBC / WBC / APTT: tissue Blood; for KIDNEY_L / KIDNEY_R / KIDNEY_TOTAL: tissue Kidney; for LIVER: tissue Liver; for ALP / ALT / AST / CRE / Ca / Cl / DBIL / GLC / K / LDH / Na / PL / RALB / TBIL / TC / TG / TP / gamma-GTP: tissue Plasma

Molecule `COc1ccc([C@@H]2Sc3ccccc3N(CCN(C)C)C(=O)[C@@H]2OC(C)=O)cc1` [DILTIAZEM] has a TERMINAL_BW (3 h) of 181.4 g, a Bas (3 h) of 0% and an Eos (3 h) of 0.8%. The Fbg (3 h) was 269 mg/dL, the Hb (3 h) was 13 g/dL and the Ht (3 h) was 40.2%. The Lym (3 h) was 76.8%, the MCHC (3 h) was 32.3% and the MCV (3 h) was 67 fL. It also gave a Mono (3 h) of 3.4%, a PT (3 h) of 14.3 s and a Plat (3 h) of 127.1 x10_4/uL. It also gave an RBC (3 h) of 600.6 x10_4/ul, a WBC (3 h) of 84.6 x10_2/uL and a KIDNEY_L (3 h) of 0.9 g. It also gave a KIDNEY_R (3 h) of 0.9 g, a KIDNEY_TOTAL (3 h) of 1.8 g and an LIVER (3 h) of 8.3 g. It also gave an ALP (3 h) of 1273 IU/L, an ALT (3 h) of 43.2 IU/L and an AST (3 h) of 75.4 IU/L. For the same molecule, the CRE (3 h) was 0.2 mg/dL, the Ca (3 h) was 10.9 mg/dL and the Cl (3 h) was 106.8 meq/L. For the same molecule, the DBIL (3 h) was 0.01 mg/dL, the GLC (3 h) was 178.4 mg/dL and the K (3 h) was 4.4 meq/L. For the same molecule, the LDH (3 h) was 79.2 IU/L, the Na (3 h) was 142 meq/L and the PL (3 h) was 141 mg/dL. For the same molecule, the RALB (3 h) was 2.5 g/dL, the TBIL (3 h) was 0.04 mg/dL and the TC (3 h) was 83.2 mg/dL. It also gave a TG (3 h) of 38.4 mg/dL, a TP (3 h) of 5.1 g/dL and a gamma-GTP (3 h) of 1 IU/L. For the same molecule, the TERMINAL_BW (6 h) was 181.1 g, the APTT (6 h) was 18.2 s and the Bas (6 h) was 0%. The Eos (6 h) was 0.4%, the Fbg (6 h) was 280 mg/dL and the Hb (6 h) was 13.3 g/dL. It also gave a Ht (6 h) of 40.7%, a Lym (6 h) of 78% and an MCHC (6 h) of 32.6%. For the same molecule, the MCV (6 h) was 66.8 fL, the Mono (6 h) was 2.6% and the PT (6 h) was 14.5 s. The Plat (6 h) was 116.6 x10_4/uL, the RBC (6 h) was 609.6 x10_4/ul and the WBC (6 h) was 77 x10_2/uL. For the same molecule, the KIDNEY_L (6 h) was 0.8 g, the KIDNEY_R (6 h) was 0.8 g and the KIDNEY_TOTAL (6 h) was 1.7 g. The LIVER (6 h) was 7.8 g, the ALP (6 h) was 1331.4 IU/L and the ALT (6 h) was 40.2 IU/L. The AST (6 h) was 69.4 IU/L, the CRE (6 h) was 0.2 mg/dL and the Ca (6 h) was 10.8 mg/dL. The Cl (6 h) was 106.6 meq/L, the DBIL (6 h) was 0.006 mg/dL and the GLC (6 h) was 171.6 mg/dL. The K (6 h) was 4.1 meq/L, the LDH (6 h) was 61.4 IU/L and the Na (6 h) was 143 meq/L. The PL (6 h) was 129.8 mg/dL, the RALB (6 h) was 2.5 g/dL and the TBIL (6 h) was 0.038 mg/dL. For the same molecule, the TC (6 h) was 71.8 mg/dL, the TG (6 h) was 43.2 mg/dL and the TP (6 h) was 5.1 g/dL. It also gave a gamma-GTP (6 h) of 1 IU/L, a TERMINAL_BW (9 h) of 180.5 g and an APTT (9 h) of 17 s. The Bas (9 h) was 0%, the Eos (9 h) was 0.6% and the Fbg (9 h) was 313 mg/dL. For the same molecule, the Hb (9 h) was 13.3 g/dL, the Ht (9 h) was 41.1% and the Lym (9 h) was 75.4%. For the same molecule, the MCHC (9 h) was 32.3%, the MCV (9 h) was 66.5 fL and the Mono (9 h) was 2.4%. It also gave a PT (9 h) of 14.5 s, a Plat (9 h) of 126.8 x10_4/uL and an RBC (9 h) of 619.2 x10_4/ul. For the same molecule, the WBC (9 h) was 78.7 x10_2/uL, the KIDNEY_L (9 h) was 0.8 g and the KIDNEY_R (9 h) was 0.8 g. It also gave a KIDNEY_TOTAL (9 h) of 1.7 g, an LIVER (9 h) of 6.9 g and an ALP (9 h) of 1820.2 IU/L. The ALT (9 h) was 43 IU/L, the AST (9 h) was 75.4 IU/L and the CRE (9 h) was 0.2 mg/dL. It also gave a Ca (9 h) of 10.6 mg/dL, a Cl (9 h) of 107 meq/L and a DBIL (9 h) of 0.01 mg/dL. It also gave a GLC (9 h) of 178 mg/dL, a K (9 h) of 4.1 meq/L and an LDH (9 h) of 71.8 IU/L. The Na (9 h) was 142.2 meq/L, the PL (9 h) was 119.4 mg/dL and the RALB (9 h) was 2.5 g/dL. The TBIL (9 h) was 0.038 mg/dL, the TC (9 h) was 67.2 mg/dL and the TG (9 h) was 28.4 mg/dL. It also gave a TP (9 h) of 5.2 g/dL, a gamma-GTP (9 h) of 1.8 IU/L and a TERMINAL_BW (24 h) of 198.1 g. The Bas (24 h) was 0%, the Eos (24 h) was 1% and the Fbg (24 h) was 259.8 mg/dL. It also gave a Hb (24 h) of 13 g/dL, a Ht (24 h) of 39.6% and a Lym (24 h) of 74.6%. For the same molecule, the MCHC (24 h) was 32.9%, the MCV (24 h) was 64.9 fL and the Mono (24 h) was 3.4%. It also gave a PT (24 h) of 14.8 s, a Plat (24 h) of 119.2 x10_4/uL and an RBC (24 h) of 610.2 x10_4/ul. The WBC (24 h) was 90.7 x10_2/uL, the KIDNEY_L (24 h) was 0.9 g and the KIDNEY_R (24 h) was 0.9 g. For the same molecule, the KIDNEY_TOTAL (24 h) was 1.8 g, the LIVER (24 h) was 8.9 g and the ALT (24 h) was 48 IU/L. For the same molecule, the AST (24 h) was 77 IU/L, the CRE (24 h) was 0.2 mg/dL and the Ca (24 h) was 11.1 mg/dL. It also gave a Cl (24 h) of 107 meq/L, a DBIL (24 h) of 0.014 mg/dL and a GLC (24 h) of 187.4 mg/dL. The K (24 h) was 4.2 meq/L, the LDH (24 h) was 88.4 IU/L and the Na (24 h) was 143.8 meq/L. For the same molecule, the PL (24 h) was 148.6 mg/dL, the RALB (24 h) was 2.6 g/dL and the TBIL (24 h) was 0.03 mg/dL. For the same molecule, the TC (24 h) was 76.6 mg/dL.
